Measurements: paper PMC6429262, “Design and Synthesis of Novel Anti-Proliferative Emodin Derivatives and Studies on their Cell Cycle Arrest, Apoptosis Pathway and Migration” (Molecules, 2019)

Tests used:
[1] = tested on: caspase-3; test: Western blot, cleaved caspase-3; assay type: cell-based, human; details: 48 h
Experimental: (§1) Total cell lysates from cultured HepG2 cells treated with different concentrations of compound 7a for 48 h were obtained by lysing the cells in ice-cold RIPA buffer (1 PBS, 1% NP-40, 0.5% sodium deoxycholate and 0.1% SDS) containing […] PMSF, 5 mg/mL aprotinin, 5 mg/mL leupeptin, 5 mg/mL pepstatin and […] NaF. After centrifugation at 12,000 rpm for 10 min, the protein in the supernatant was quantified by the Bradford method (BIO-RAD, Hercules, CA, USA) using a Multimode Varioscan instrument (Thermo Fischer Scientific, Waltham, MA, USA). Twenty micrograms of protein per lane was applied in 12% SDS polyacrylamide gel. After electrophoresis, the protein was transferred to a polyvinylidine difluoride membrane (Amersham Biosciences, Marlborough, MA, USA). The membrane was blocked at room temperature for 2 h in TBST containing 5% blocking powder (Santa Cruz, Dallas, TX, USA). The membrane was washed with TBST for 5 min, and the primary antibody was added and incubated at 4 °C overnight (O/N). Bax (5023, CST, Danvers, MA, USA), Bcl-2 (15071, CST), cytochrome c (4280, CST), procaspase-9 (AB138412, Abcam, Cambridge, MA, USA), procaspase-3 (AB32150, Abcam), caspase-3 (66470-2-lg, Proteintech Group, Rosemont, IL, USA) and GAPDH (AB8245, Abcam) antibodies were employed. After three TBST washes, the membrane was incubated with the corresponding horseradish peroxidase-labeled secondary antibody (1:5000) (Santa Cruz) at room temperature for 2 h. Membranes were washed with TBST for 15 min five times and the protein blots were visualized with chemiluminescence reagent (Thermo Fischer Scientific Ltd.). The X-ray films were developed with a developer and fixed with fixer solution. The grey levels were analyzed using ImageQuant LAS 4000 system (GE, Marlborough, MA, USA).

[2] = tested on: HepG2 cells; test: Cell cycle analysis, PI staining flow cytometry; assay type: cell-based, human; set-up: Dip G1 (G1 phase cells) / Dip S (S phase cell population): dose or concentration left out as unconfirmed; details: for Cell cycle distribution, G0/G1 / Cell cycle distribution, G2/M / Cell cycle distribution, S: mean ± SD of three experiments
Experimental: To further examine how compound 7a suppressed the growth of HepG2 cells, the effect of compound 7a on cell cycle distribution with different concentrations was investigated by flow cytometric analysis following staining the DNA with propidium iodide (PI).
The HepG2 cells were treated with indicated concentrations of compound 7a. After incubation for 48 h, cells were washed twice with ice-cold PBS, fixed and permeabilized with ice cold 70% ethanol at −20 °C overnight. The cells were treated with 100 μg/mL RNase A at 37 °C for 30min, then washed with ice-cold PBS and finally stained with 1mg/mL PI in the dark at 4 °C for 30 min. The cellular DNA content for the cell cycle distribution analysis was performed with the system software (CellQuest; BD Biosciences), plotting at least 30,000 events per sample. The percentage of cells in the G1, S and G2 phases of the cell cycle were determined using the ModFit LT version 5.0 software package (Verity Software, Topsham, ME, USA).

[3] = tested on: MCF-7 cells; test: CellTiter-Glo Luminescent Cell Viability Assay, MCF-7; assay type: cell-based, human; details: for IC50: MCF-7 cells, 48 h, mean of three independent experiments
[4] = tested on: cytochrome c; test: Western blot, cytochrome c; assay type: cell-based, human; details: 48 h
Experimental: as §1

[5] = tested on: procaspase-3; test: Western blot, procaspase-3; assay type: cell-based, human; details: 48 h
Experimental: as §1

[6] = tested on: L02 cells; test: Cytotoxic activity against human normal liver cells (L02); assay type: cell-based
[7] = tested on: HepG2 cells; test: CellTiter-Glo Luminescent Cell Viability Assay, HepG2; assay type: cell-based, human; details: for IC50: 48 h, mean of three independent experiments
[8] = HepG2, 48 h, representative plot

IC50 ([3]; Homo sapiens, MCF7, 48 h): 5.92 ± 0.36 µM | IC50 [3]: 6.47 ± 0.18 µM | IC50 ([7]; HepG2 cells): 6.47 ± 0.21 µM | IC50 ([7]; Homo sapiens, HepG2, 48 h, HepG2 cells): 4.95 ± 0.14 µM
SMILES: Cc1cc(O)c2c(c1)C(=O)c1cc(OCCCOC(=O)[C@@H](C)N)cc(O)c1C2=O.O=C(O)C(F)(F)F [Compound 7a, (R)-1-(3-(4,5-Dihydroxy-7-methyl-9,10-dioxo-9,10-dihydroanthracen-2-yloxy)propoxy)-1-oxopropan-2-aminium 2,2,2-trifluoroacetate]
Relative expression level, Cleaved Caspase-3 ([1]; HepG2, 2.5 μM): 0.056 ± 0.011 | Relative expression level, Cleaved Caspase-3 ([1]; HepG2, 5 μM): 0.143 ± 0.013 | Relative expression level, Cleaved Caspase-3 ([1]; HepG2, 10 μM): 0.185 ± 0.026 | Cell cycle distribution, G0/G1 ([2]; HepG2, 0.25 μM): 44.18 ± 1.79% | Cell cycle distribution, G2/M ([2]; HepG2, 0.25 μM): 17.55 ± 0.90% | Cell cycle distribution, S ([2]; HepG2, 0.25 μM): 38.25 ± 1.65% | Cell cycle distribution, G0/G1 ([2]; HepG2, 0.5 μM): 56.49 ± 1.40% | Cell cycle distribution, G2/M ([2]; HepG2, 0.5 μM): 24.81 ± 1.79% | Cell cycle distribution, S ([2]; HepG2, 0.5 μM): 19.21 ± 1.33% | Cell cycle distribution, G0/G1 ([2]; HepG2, 1 μM): 63.96 ± 2.42% | Cell cycle distribution, G2/M ([2]; HepG2, 1 μM): 22.22 ±1.16% | Cell cycle distribution, S ([2]; HepG2, 1 μM): 14.52 ± 1.43% | Dip G1 (G1 phase cells) [2, 8]: 63.37% | Dip S (S phase cell population) [2, 8]: 14.60% | Selectivity Index MCF-7 ([3]; IC50 on normal cells (L02)/IC50 on cancer cells (MCF-7)): 2.36 | Relative expression level, cytochrome c ([4]; HepG2, 2.5 μM): 1.407 ± 0.015 | Relative expression level, cytochrome c ([4]; HepG2, 5 μM): 1.663 ± 0.110 | Relative expression level, cytochrome c ([4]; HepG2, 10 μM): 2.220 ± 0.387 | Relative expression level, Full length procaspase-3 ([5]; HepG2, 2.5 μM): 0.78 ± 0.012 | Relative expression level, procaspase-3 ([5]; HepG2, 2.5 μM): 0.510 ± 0.132 | Relative expression level, Full length procaspase-3 ([5]; HepG2, 5 μM): 0.220 ± 0.019 | Relative expression level, procaspase-3 ([5]; HepG2, 5 μM): 0.317 ± 0.031 | Relative expression level, Full length procaspase-3 ([5]; HepG2, 10 μM): 0.152 ± 0.009 | Relative expression level, procaspase-3 ([5]; HepG2, 10 μM): 0.170 ± 0.053 | IC50 ([6]; Homo sapiens, L02, human normal liver L02 cells): 14 ± 0.27 µM | IC50 ([6]; human normal liver L02 cells): 18.5 ± 0.19 µM | enhancement of anti-proliferative activity compared to emodin ([7]; HepG2 cells, IC50 ratio to parent compound emodin): 8.8 fold | Selectivity Index HepG2 ([7]; IC50 on normal cells (L02)/IC50 on cancer cells (HepG2)): 2.82
